Assay results as given in US9513253B2, “Droplet actuators and techniques for droplet-based enzymatic assays” (Advanced Liquid Logic, Inc., priority 2011, dated 2016).

Test: 4-MU partitioning assay, backward transfer partitioning (backward extraction; BE), effect of aqueous phase surfactants on 4-MU containment
Assay type: physicochemical
Conditions: surfactant at 1.5 times its CMC; oil phase 5 cSt silicone oil with 0.1% w/v Triton X-15; lower signal = better 4-MU retention
Description: The efficacy of different surfactants (detergents) in containing 4-MU (or derivatives) within an aqueous phase may, for example, be evaluated using a partitioning assay. Parameters that may be varied in the assay for evaluation of surfactants in aqueous containment of 4-MU (or derivatives) include, but are not limited to, the pH of the aqueous phase solution, and the critical micelle concentration of the surfactant.
The assay format includes forward transfer partitioning (forward extraction; FE) of 4-MU from an aqueous phase to an oil phase and backward transfer partitioning (backward extraction; BE) of 4-MU from an oil phase to an aqueous phase. The assay is performed in 96-well microtiter substrates; clear 96-well substrates (e.g., Costar 3631) for evaluation of forward transfer partitioning with bottom probe fluorescence detection and solid black 96-well substrates (e.g., Costar 3915) for evaluation of backward transfer partitioning with top probe fluorescence detection. A BioTek Synergy HT instrument with 3 mm top probe and 5 mm bottom probe, may, for example, be used for fluorescence measurements. […]

relative fluorescence reading, backward transfer partitioning (BE) of 4-MU: 43,000-44,000 RFU
Substance: ANAPOE ®-20 (Tween ® 20) [AS17]
